# Article PMC5114558, “Reader domain specificity and lysine demethylase-4 family function” (Nature Communications, 2016)
# Entries after “also recorded” stand apart in the source; their conditions may differ.
# How the values were obtained:
# Assay type in all cases: biochemical, human
# [1] = tested on: KDM4B full-length protein; assay: MS-based demethylation assay, full-length KDM4B; details: 0.2 μM enzyme, 5–10 μM peptide, pH 7.5, 25 °C, MS read-out, single peptide substrates, Fig. 6a,b
# Procedure: (§1) In a typical demethylase reaction, the assay mixture containing 50 mM Tris pH 7.5, 50 mM NaCl, 50 μM (NH4)2Fe(SO4)2, 0.5 mM ascorbic acid, 1 mM α-ketoglutarate and 0.2 μM full-length KDM4A–C (Active Motif) was mixed with 5–10 μM of trimethylated histone peptides (detailed sequence information in Supplementary Table 1). Each peptide concentration was quantified by measuring Abs280nm for peptides containing either tryptophan or tyrosine residue. After incubation of assay mixture at 25 °C for 10, 30 and 60 min time point, 10 μl of aliquot was transferred to a clean tube containing 5 μl of 5% formic acid to quench the reaction. Each quenched sample was treated with standard StageTip protocol using C18 extraction disk (Model 2215, Empore, 3 M) to remove excess salts and detergents in the reaction mixture. Each eluate from StageTip containing peptides was dried at a reduced pressure (vacuum centrifuge) and was re-suspended with 10 μl of 5% acetonitrile solution (0.1% formic acid). The 1 μl of the sample was injected at 0.7 μl min^−1 flow rate onto a Dionex Ultimate 3000 Nano LC system equipped with Atlantis dC18 NanoEase reverse-phase column (3 μm, 100 μm × 150 mm, Waters) and coupled to a hybrid quadrupole-orbitrap MS (Q-Exactive, Thermo Scientific). The peptide was eluted at 4–15 min retention time with a linear gradient of 2–35% acetonitrile (0.1% formic acid). All the solvents used for liquid chromatography MS were HPLC grade (Fisher). For each analysis, MS1 scan range of 300–1,100 m/z was used and data-dependent MS/MS was obtained to identify the site of demethylation. Each peptide peak and its area integration was performed on the XCalibur Qual Browser.
# KDM4C full-length = assay: MS-based demethylation assay, 1:1 substrate competition, full-length KDM4C; details: 1:1 (5 μM:5 μM) H3K36me3 and H3K23me3K36me3, MS; Supplementary Fig. 7d-e
# Procedure: as §1, with “All the solvents used for liquid chromatography MS were HPLC grade (Fisher). For each analysis, MS1 scan range of 300–1,100 m/z was used and data-dependent MS/MS was obtained to identify the site of demethylation. Each peptide peak and its area integration was performed on the XCalibur Qual Browser.” left out
# [2] = tested on: KDM4B full-length protein; assay: MS-based demethylation assay, 1:1 substrate competition, full-length KDM4B; details: 1:1 (5 μM:5 μM) H3K36me3 and H3K23me3K36me3, 25 °C, P<0.01 (Fig. 6c)
# Procedure: as §1, with “All the solvents used for liquid chromatography MS were HPLC grade (Fisher). For each analysis, MS1 scan range of 300–1,100 m/z was used and data-dependent MS/MS was obtained to identify the site of demethylation. Each peptide peak and its area integration was performed on the XCalibur Qual Browser.” left out
# KDM4A full-length = assay: MS-based demethylation assay, 1:1 substrate competition, full-length KDM4A; details: 1:1 (5 μM:5 μM) H3K36me3 and H3K23me3K36me3, MS; Supplementary Fig. 7d-e
# Procedure: as §1, with “All the solvents used for liquid chromatography MS were HPLC grade (Fisher). For each analysis, MS1 scan range of 300–1,100 m/z was used and data-dependent MS/MS was obtained to identify the site of demethylation. Each peptide peak and its area integration was performed on the XCalibur Qual Browser.” left out
substance,measurement,setting,value
"H3K23me3K36me3: demethylation assay peptide, Tufts University Core Facility",demethylation by full-length KDM4B,[1],faster rates of H3K36me2 and H3K36me1 product formation
same,demethylation by full-length KDM4B,[1]; listed as H3(20–42)K23me3K36me3,increases H3K36me3 conversion to H3K36me1/2
same,preferential demethylation by KDM4C in 1:1 mixture,KDM4C full-length,not KDM4C
same,preferential demethylation by KDM4B in 1:1 mixture,[2],preferentially demethylates dually modified peptide; also recorded: preferentially demethylate H3K36me3 in the context of dually modified peptide
same,preferential demethylation by KDM4A in 1:1 mixture,KDM4A full-length,preferentially demethylates dually modified peptide; also recorded: enhanced for KDM4A and KDM4B but not KDM4C
